Reference: US7906491B2 (Univisitair Medisch Centrum Utrecht, priority 2002, dated 2011)

Key:
[1] = test system: PKAI; experiment: Relative affinity for PKAI (cAMP = 1), in vitro; assay type: binding; conditions: relative to cAMP = 1
[2] = target: T1, Epac (Homo sapiens, UniProt O95398); experiment: Relative affinity for Epac (cAMP = 1), in vitro; assay type: binding; conditions: relative to cAMP = 1
T1 sequence (O95398 1-923): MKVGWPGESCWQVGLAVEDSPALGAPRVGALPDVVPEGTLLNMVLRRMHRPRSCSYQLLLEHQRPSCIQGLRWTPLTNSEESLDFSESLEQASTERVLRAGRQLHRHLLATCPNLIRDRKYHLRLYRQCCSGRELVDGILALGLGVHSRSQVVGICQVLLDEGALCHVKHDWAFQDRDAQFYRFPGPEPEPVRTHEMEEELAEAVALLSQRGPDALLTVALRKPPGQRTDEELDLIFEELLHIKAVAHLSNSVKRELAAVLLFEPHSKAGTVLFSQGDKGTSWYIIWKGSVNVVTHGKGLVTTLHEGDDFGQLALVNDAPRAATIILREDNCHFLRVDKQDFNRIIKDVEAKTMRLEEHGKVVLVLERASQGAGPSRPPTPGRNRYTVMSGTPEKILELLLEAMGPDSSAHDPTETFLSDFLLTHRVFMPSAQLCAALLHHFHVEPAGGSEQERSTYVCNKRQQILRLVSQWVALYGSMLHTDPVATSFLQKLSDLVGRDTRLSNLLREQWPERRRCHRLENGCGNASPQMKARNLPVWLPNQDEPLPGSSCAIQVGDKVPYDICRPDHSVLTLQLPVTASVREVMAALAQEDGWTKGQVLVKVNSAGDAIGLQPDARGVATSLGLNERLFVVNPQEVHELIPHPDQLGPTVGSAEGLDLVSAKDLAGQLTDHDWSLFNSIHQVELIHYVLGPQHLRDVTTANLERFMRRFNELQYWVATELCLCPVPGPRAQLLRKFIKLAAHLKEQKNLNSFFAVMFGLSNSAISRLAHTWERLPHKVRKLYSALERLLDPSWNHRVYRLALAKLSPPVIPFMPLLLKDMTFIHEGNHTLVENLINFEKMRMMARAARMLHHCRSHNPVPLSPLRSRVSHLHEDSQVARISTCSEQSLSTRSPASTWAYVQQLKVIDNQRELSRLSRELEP

[3] = test system: type I holoenzyme of PKA (PKAI); experiment: In vitro activation of cAMP-dependent protein kinase, type I holoenzyme (kemptide substrate); assay type: biochemical; conditions: compared to cAMP, FIG. 5
Procedure: (§1) Cyclic AMP dependent protein kinase I and II were reconstituted from isolated subunits and assayed for kinase activity using […] kemptide as substrate, as described previously (15).

[4] = test system: type II holoenzyme of PKA (PKAII); experiment: In vitro activation of cAMP-dependent protein kinase, type II holoenzyme (kemptide substrate); assay type: biochemical; conditions: compared to cAMP, FIG. 5
Procedure: as §1

[5] = test system: CREB; experiment: CREB phosphorylation (read-out for PKA) in NIH3T3-A14-Epac1 cells; assay type: cell-based; conditions: concentration as high as 100 μM
Procedure: Upper panel: NIH3T3-A14-Epac1 cells were treated for 15 min with 8-Br-cAMP, and cell lysates were analyzed for activation of Rap1 and phosphorylation of CREB. Lower panel: NIH3T3-A14-Epac1 cells were treated in duplicate for 15 min with increasing concentrations of 8-pCPT-2′-O-Me-cAMP. Cells were lysed and equal amounts of cell lysate were incubated with precoupled GST-RalGDSRBD and Rap1 was assayed by immunoblotting with Rap1 antibody.
Therefore, 8-CPT-2′-O-Me-cAMP was tested in NIH3T3-A14-Epac1 cells for the activation of Epac, using Rap1 as a read-out, and of PKA, using phosphorylation of the common PKA substrate CREB 29 as a read-out.
Antibodies against phosphorylated CREB (directed against phosphorylated Serl33) were obtained from Cell Signalling (Beverly, Mass., USA), and antibodies against K-Rev/Rap1 and polyclonal anti-HA were obtained from Santa Cruz Biotechnology (Santa Cruz, Calif., USA). The following inhibitors and stimuli were used at concentrations indicated, unless stated otherwise: RGD peptide (100 μM) and H-89 (10 μM) was obtained from Biomol Research Laboratories Inc. (Plymouth Meeting, Pa., USA). 8-Br-cAMP (1 mM) was obtained from BIOLOG Life Science Institute (Bremen, Germany). TPA (12-O-tetradecanoylphorbol-13-acetate) was obtained from Sigma (Steinheim, Germany) and was used at a concentration of 100 ng/ml. […]

[6] = test system: extracellular signal-regulated kinase (ERK); experiment: ERK activation / inactivation in vivo (cells); assay type: cell-based
[7] = test system: INS-1 insulin-secreting cells; conditions: cited from earlier work

Relative affinity CAMP = 1 Epac [2]: 4.6 | ability to activate the type I holoenzyme of PKA [3]: greatly impaired | ability to activate the type II holoenzyme of PKA [4]: greatly impaired
SMILES: CO[C@@H]1[C@@H]2OP(=O)(O)OC[C@H]2O[C@H]1n1c(Sc2ccc(Cl)cc2)nc2c(N)ncnc21 [Compound I-007, 8-(4-chloro-phenylthio)-2′-O-methyladenosine-3′,5′-cyclic monophosphate]
Relative affinity CAMP = 1 PKAI [1]: 0.009 | CREB phosphorylation [5]: did not induce CREB phosphorylation | activation and inactivation of ERK [6]: affected neither the activation nor the inactivation | exocytosis [7]: induces exocytosis | mobilization of Ca2+ from intracellular Ca2+ stores via Epac-mediated CICR [7]: can induce mobilization of Ca^2+
